Test [1] addresses T1, Androgen receptor (Homo sapiens, UniProt P10275).
T1 sequence (P10275 whole entry): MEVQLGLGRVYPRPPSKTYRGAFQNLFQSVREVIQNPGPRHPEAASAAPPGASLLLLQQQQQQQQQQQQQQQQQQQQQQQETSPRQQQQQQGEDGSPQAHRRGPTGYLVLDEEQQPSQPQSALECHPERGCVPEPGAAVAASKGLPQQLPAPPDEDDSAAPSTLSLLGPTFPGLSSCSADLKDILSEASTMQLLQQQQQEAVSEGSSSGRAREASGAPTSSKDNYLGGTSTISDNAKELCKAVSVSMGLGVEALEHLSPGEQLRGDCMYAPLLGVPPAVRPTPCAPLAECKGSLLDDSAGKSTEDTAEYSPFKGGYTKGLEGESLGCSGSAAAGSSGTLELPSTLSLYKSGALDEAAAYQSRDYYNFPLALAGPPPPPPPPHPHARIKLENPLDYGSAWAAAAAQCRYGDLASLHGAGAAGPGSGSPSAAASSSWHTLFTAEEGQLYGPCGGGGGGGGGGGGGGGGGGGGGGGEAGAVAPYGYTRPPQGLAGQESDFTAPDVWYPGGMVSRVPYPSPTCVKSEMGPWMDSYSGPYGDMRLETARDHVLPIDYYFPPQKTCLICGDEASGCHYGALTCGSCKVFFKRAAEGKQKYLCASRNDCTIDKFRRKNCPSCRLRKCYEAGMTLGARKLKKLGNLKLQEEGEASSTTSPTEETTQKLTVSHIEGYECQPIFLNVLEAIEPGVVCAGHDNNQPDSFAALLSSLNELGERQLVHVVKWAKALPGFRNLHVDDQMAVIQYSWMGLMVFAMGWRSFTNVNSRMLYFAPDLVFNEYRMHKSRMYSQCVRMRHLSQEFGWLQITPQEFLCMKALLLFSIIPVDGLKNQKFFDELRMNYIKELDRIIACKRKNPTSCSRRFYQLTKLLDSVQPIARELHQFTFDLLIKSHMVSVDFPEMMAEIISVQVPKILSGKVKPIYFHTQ
Nature of the test: Inhibition of androgen dependent human prostate cancer cell […] proliferation; Ag means agonist. The format is functional, cell-based. The conditions noted are these: cancer cell lines.

Test [2] concerns the target T2, Androgen receptor (Homo sapiens, UniProt P10275, T878A). Nature of the test: Inhibition of mutant T877A Androgen receptor in human LNCaP cells; Ag means agonist. In kind it is functional, cell-based.
Test [3] deals with T1, Androgen receptor.
Description: Inhibition of androgen receptor in human MDA-453 cells
Test [4] deals with T2, Androgen receptor. Nature of the test: biochemical.
Test [5] addresses T2, Androgen receptor. Nature of the test: Inhibition of mutant T877A Androgen receptor in human LNCaP cells. The format is cell-based.
Test [6] concerns the target T1, Androgen receptor. Nature of the test: Binding affinity for androgen receptor in human MDA-453 cells.

T2 sequence (P10275 whole entry T878A): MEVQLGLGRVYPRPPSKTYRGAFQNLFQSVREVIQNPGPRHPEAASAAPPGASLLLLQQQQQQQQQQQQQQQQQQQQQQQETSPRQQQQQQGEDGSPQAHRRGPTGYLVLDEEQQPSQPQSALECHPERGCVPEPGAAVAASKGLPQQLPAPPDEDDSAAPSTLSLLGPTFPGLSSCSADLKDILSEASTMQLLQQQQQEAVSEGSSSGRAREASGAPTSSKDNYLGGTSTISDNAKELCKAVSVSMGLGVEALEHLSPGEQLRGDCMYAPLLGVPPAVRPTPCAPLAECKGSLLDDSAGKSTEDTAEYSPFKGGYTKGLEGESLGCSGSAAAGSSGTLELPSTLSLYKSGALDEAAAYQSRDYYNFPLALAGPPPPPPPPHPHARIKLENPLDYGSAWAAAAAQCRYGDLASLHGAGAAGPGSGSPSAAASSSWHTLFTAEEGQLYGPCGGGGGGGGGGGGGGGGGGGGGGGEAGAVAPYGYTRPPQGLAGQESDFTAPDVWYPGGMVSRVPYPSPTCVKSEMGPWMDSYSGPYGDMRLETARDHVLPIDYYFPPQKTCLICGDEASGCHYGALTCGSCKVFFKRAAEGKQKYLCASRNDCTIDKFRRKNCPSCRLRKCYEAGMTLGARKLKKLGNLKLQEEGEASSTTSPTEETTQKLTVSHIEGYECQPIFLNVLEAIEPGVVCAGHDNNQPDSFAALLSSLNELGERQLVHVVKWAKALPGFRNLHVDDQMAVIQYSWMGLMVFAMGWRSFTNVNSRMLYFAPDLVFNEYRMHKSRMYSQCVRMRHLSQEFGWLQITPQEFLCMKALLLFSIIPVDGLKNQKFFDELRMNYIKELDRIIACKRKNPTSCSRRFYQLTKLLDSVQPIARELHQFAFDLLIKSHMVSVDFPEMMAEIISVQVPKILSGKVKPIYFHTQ

As for `O=C1[C@@H]2C3CCC(C3)[C@@H]2C(=O)N1c1ccc([N+](=O)[O-])c(C(F)(F)F)c1`, the IC50 result on Androgen receptor [1] and at Androgen receptor [2] was “Agonist” throughout.
On to `Cc1cc(N2C(=O)[C@@H]3C4C=CC(CC4)[C@@H]3C2=O)ccc1Br`, for which the IC50 – broadly, the point on the concentration scale where inhibition reaches its midpoint – is 68 nM against Androgen receptor [3], “Agonist” on Androgen receptor [1] and “Agonist” at Androgen receptor [2]. Moreover, affinity on Androgen receptor [4] was put at a Ki of 0.01 nM.
Consider `O=C1[C@@H]2C3C=CC(CC3)[C@@H]2C(=O)N1c1cccc(C(F)(F)F)c1`, for which the IC50 against Androgen receptor [3] worked out at 196 nM; against Androgen receptor [5] it was 66 nM. Further, the Ki (in general, a dissociation constant, usually derived from enzyme kinetics or from competition with a known ligand) at Androgen receptor [4] was 19 nM.
For `O=C1[C@@H]2C3C=CC(C3)[C@@H]2C(=O)N1c1ccc(Cl)c(Cl)c1`, the Ki stood at 158 nM on Androgen receptor [6] and 6 nM at Androgen receptor [4]. Besides, the IC50 against Androgen receptor [3] was determined as 307 nM; against Androgen receptor [5], 41 nM.
Turning to `O=C1[C@@H]2C3C=CC([C@H]4C[C@@H]34)[C@@H]2C(=O)N1c1cccc(C(F)(F)F)c1`, the concentration for half-maximal inhibition (IC50) against Androgen receptor [3] was found to be 1700 nM; at Androgen receptor [5], 30 nM. This compound had a Ki on Androgen receptor [4] of 9 nM.
Consider `CN1C(=O)C2C=CC1[C@@H]1C(=O)N(c3ccc([N+](=O)[O-])c4ccccc34)C(=O)[C@H]21` (stereo not given in full), for which the Ki at Androgen receptor [6] is above 5000 nM; at Androgen receptor [4], 115 nM. Also, the IC50 worked out at 4030 nM on Androgen receptor [3] and 631 nM on Androgen receptor [5].
In the case of `O=C1[C@@H]2C3CCCC(CC3)[C@@H]2C(=O)N1c1cccc(C(F)(F)F)c1`, the IC50 against Androgen receptor [3] was found to be 658 nM; against Androgen receptor [5] it was 23 nM. The compound further registered a Ki at Androgen receptor [4] of 20 nM.
Turning to `O=C1[C@@H]2C3C=CC(CC3)[C@@H]2C(=O)N1c1ccc(Cl)c(Cl)c1`, the figures for the Ki at Androgen receptor [6] and on Androgen receptor [4] were 83 nM and 28 nM, respectively. The IC50 against Androgen receptor [3] is 150 nM; at Androgen receptor [1] it was “Agonist”; on Androgen receptor [2], “Agonist”.
`O=C1[C@@H]2C3C=CC(CC3)[C@@H]2C(=O)N1c1ccc([N+](=O)[O-])c2ccccc12`: the results for the IC50 at Androgen receptor [3] and at Androgen receptor [1] were 224 nM and “Agonist”, respectively. For the same compound, the Ki on Androgen receptor [4] was found to be 0.5 nM.
In turn, `O=C1[C@@H]2C3C=CC([C@H]4C[C@@H]34)[C@@H]2C(=O)N1c1ccc([N+](=O)[O-])c2ccccc12` displayed a Ki at Androgen receptor [6] of 3 nM. In addition, the IC50 on Androgen receptor [3] is 786 nM; at Androgen receptor [1], “Agonist”; at Androgen receptor [2], “Agonist”.
As to `O=C1[C@@H]2C3C=CC(CCC3)[C@@H]2C(=O)N1c1ccc([N+](=O)[O-])c2ccccc12`, the IC50 against Androgen receptor [3] was 49 nM; at Androgen receptor [1] it was “Agonist”; on Androgen receptor [2] it was “Agonist”.
For `Cc1cc(N2C(=O)[C@@H]3C4C=CC([C@H](O)[C@@H]4O)[C@@H]3C2=O)ccc1Br`, the Ki is 432 nM at Androgen receptor [6] and 33 nM at Androgen receptor [4]. The IC50 on Androgen receptor [3] was 5240 nM; on Androgen receptor [1], “Agonist”; against Androgen receptor [5] it was 59 nM.
On to `CC(C)(O)C(=O)Nc1ccc([N+](=O)[O-])c(C(F)(F)F)c1` [HYDROXYFLUTAMIDE], for which the IC50 entry at Androgen receptor [1] and on Androgen receptor [2] was “Agonist” each time.

Source of the values: ChEMBL document CHEMBL1142826, “Structure based approach to the design of bicyclic-1H-isoindole-1,3(2H)-dione based androgen receptor antagonists” (Bioorg Med Chem Lett, 2005).
